#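 Growth conditions: 96-well plates. Treatment: test compound, 48 hours, 5 concentrations. Analysis: linear interpolation between bracketing concentrations; unreached endpoints set to highest concentration. GI50: concentration for 50% inhibition of growth. TGI marks complete inhibition of growth.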
# Tests used:
# Test in all cases: growth of human tumour cells (NCI), 48 h
# [1] = system: M14 melanoma
# [2] = system: SR leukemia
# [3] = system: HOP-92 NSCLC
# [4] = system: SK-OV-3 ovarian
# [5] = system: COLO 205 colon
# [6] = system: UACC-62 melanoma
# [7] = system: HCC-2998 colon
# [8] = system: UACC-257 melanoma
# [9] = system: NCI-H522 lung
# [10] = system: SN12C renal
Structure (SMILES),GI50 [1] [µM],TGI [1] [µM],GI50 [2] [µM],TGI [2] [µM],GI50 [3] [µM],TGI [3] [µM],GI50 [4] [µM],TGI [4] [µM],GI50 [5] [µM],TGI [5] [µM],GI50 [6] [µM],TGI [6] [µM],GI50 [7] [µM],TGI [7] [µM],GI50 [8] [µM],TGI [8] [µM],GI50 [9] [µM],TGI [9] [µM],GI50 [10] [µM],TGI [10] [µM]
N=C(N)c1ccc(N2CCCN(c3ccc(C(=N)N)cc3)CC2)cc1,> 100,> 100,> 100,> 100,89.6,> 100,> 100,> 100,31.8,> 100,89,> 100,> 100,> 100,> 100,> 100,81.9,> 100,66.6,> 100
O[C@H]1CO[C@H]2[C@@H]1OC[C@@H]2Oc1ccc(Nc2ccnc(Nc3ccc(O[C@H]4CO[C@H]5[C@@H]4OC[C@@H]5O)c(Cl)c3)n2)cc1Cl,1.48,4.18,2.28,15.3,1.52,3.15,2.53,10,1.86,6.16,1.11,2.75,2.27,6.55,2.7,10.2,1.17,3.69,1.59,6.15
CCOc1ccc2nc(NC(=O)c3c/c(=N\NC(=O)C[N+](C)(C)C)c4ccc(O)cc4o3)sc2c1,–,3.1,–,17.3,–,6.99,–,25.2,–,20.7,–,3.21,–,20.8,–,3.16,–,4.14,–,14.5
O=C(c1ccccc1)C(CN1CCOCC1)c1ccccc1 (stereo not given),1.66,3.57,1.02,4.45,1.33,2.87,5.18,17.9,1.76,3.32,1.71,4.21,4.36,15.6,1.37,3.13,0.255,0.995,1.73,4.47
COc1cccc(NC(=O)c2sc3nc4c(cc3c2N)CN(Cc2ccccc2)CC4)c1,12.7,86.8,0.453,47.7,2.21,24.1,2.78,14,7.55,54.5,1.92,29.8,9.13,> 100,6.52,> 100,15.1,> 100,11.2,> 100
CN(C)CCCN1c2ccccc2CCc2ccc(Cl)cc21,1.83,3.35,2.08,5.11,1.44,6.8,4.49,15.4,1.91,3.53,1.61,3.31,1.8,3.75,1.84,3.41,5.15,18.1,3.26,16.3
